Laboratory results reported in PubChem BioAssay AID1918993 (Molecular Pharmacology Branch, DTP, NCI, 2023).

Test system: 233499-124-R-J3-PDC complex spheroid growth
Experiment: Anticancer human tumor 233499-124-R-J3-PDC patient-derived colon adenocarcinoma cell line growth inhibition [AhR]
Conditions: for IC50: curve of first compound; for viability, T/C: stronger effect = lower value
Procedure, shortened: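 Complex tumor spheroids co-cultured with HUVEC and human MSC stroma; AhR antagonists tested in combination with standard-of-care and investigational agents. Top concentration at or near clinical Cmax (else 10 microM), half-log dilutions; growth expressed as percent test/control.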

[1] = second compound 0.1 µM, first compound 0.0316 µM
[2] = second compound 0.1 µM, first compound 0.1 µM
[3] = second compound 0.1 µM, first compound 0.316 µM
[4] = second compound 0.1 µM, first compound 1 µM
[5] = second compound 0.316 µM, first compound 0.0316 µM
[6] = second compound 0.316 µM, first compound 0.1 µM
[7] = second compound 0.316 µM, first compound 0.316 µM
[8] = second compound 0.316 µM, first compound 1 µM
[9] = second compound 1 µM, first compound 0.0316 µM
[10] = second compound 1 µM, first compound 0.1 µM
[11] = second compound 1 µM, first compound 0.316 µM
[12] = second compound 1 µM, first compound 1 µM
[13] = second compound 3.16 µM, first compound 0.0316 µM
[14] = second compound 3.16 µM, first compound 0.1 µM
[15] = second compound 3.16 µM, first compound 0.316 µM
[16] = second compound 3.16 µM, first compound 1 µM
[17] = second compound 10 µM, first compound 0.0316 µM
[18] = second compound 10 µM, first compound 0.1 µM
[19] = second compound 10 µM, first compound 0.316 µM
[20] = second compound 10 µM, first compound 1 µM
[21] = second compound 0.1 µM, first compound 0.00316 µM
[22] = second compound 0.1 µM, first compound 0.01 µM
[23] = second compound 0.316 µM, first compound 0.00316 µM
[24] = second compound 0.316 µM, first compound 0.01 µM
[25] = second compound 1 µM, first compound 0.00316 µM
[26] = second compound 1 µM, first compound 0.01 µM
[27] = second compound 3.16 µM, first compound 0.00316 µM
[28] = second compound 3.16 µM, first compound 0.01 µM
[29] = second compound 10 µM, first compound 0.00316 µM
[30] = second compound 10 µM, first compound 0.01 µM
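Note: spheroids exposed to agents for seven days before reading.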

`CC1(C)CCC(CN2CCN(c3ccc(C(=O)NS(=O)(=O)c4ccc(NCC5CCOCC5)c([N+](=O)[O-])c4)c(Oc4cnc5[nH]ccc5c4)c3)CC2)=C(c2ccc(Cl)cc2)C1` + Cc1ccccc1N=Nc1ccc(NC(=O)c2ccnn2C)c(C)c1 was tested, and the IC50 (second compound 0.1 µM) was greater than 10 µM, the IC50 (second compound 0.316 µM) was 8.7 µM and the IC50 (second compound 1 µM) was 9.24 µM. It also gave an IC50 (second compound 3.16 µM) of 7.49 µM, an IC50 (second compound 10 µM) of 7.21 µM and a viability, T/C [1] of 94.8%. The viability, T/C [2] was 116%, the viability, T/C [3] was 102% and the viability, T/C [4] was 108%. It also gave a viability, T/C (second compound 0.1 µM, first compound 3.16 µM) of 117%, a viability, T/C (second compound 0.1 µM, first compound 10 µM) of 51.5% and a viability, T/C [5] of 111%. The viability, T/C [6] was 110%, the viability, T/C [7] was 97% and the viability, T/C [8] was 112%. It also gave a viability, T/C (second compound 0.316 µM, first compound 3.16 µM) of 118%, a viability, T/C (second compound 0.316 µM, first compound 10 µM) of 41.8% and a viability, T/C [9] of 104%. The viability, T/C [10] was 106%, the viability, T/C [11] was 97.6% and the viability, T/C [12] was 122%. For the same compound, the viability, T/C (second compound 1 µM, first compound 3.16 µM) was 122%, the viability, T/C (second compound 1 µM, first compound 10 µM) was 45.5% and the viability, T/C [13] was 102%. The viability, T/C [14] was 97.7%, the viability, T/C [15] was 104% and the viability, T/C [16] was 99.4%. It also gave a viability, T/C (second compound 3.16 µM, first compound 3.16 µM) of 113%, a viability, T/C (second compound 3.16 µM, first compound 10 µM) of 32.2% and a viability, T/C [17] of 121%. For the same compound, the viability, T/C [18] was 99.3%, the viability, T/C [19] was 112% and the viability, T/C [20] was 107%. The viability, T/C (second compound 10 µM, first compound 3.16 µM) was 109% and the viability, T/C (second compound 10 µM, first compound 10 µM) was 26.6%.

`CC1COCCN1c1cc(-c2ccnn2C)c2ccnc(-c3ccn[nH]3)c2n1` (stereo not given) + Cc1cncc(-c2nc(NCCc3c[nH]c4ccccc34)c3ncn(C(C)C)c3n2)c1 showed an IC50 (second compound 0.1 µM) of 0.546 µM, an IC50 (second compound 0.316 µM) of 0.525 µM and an IC50 (second compound 1 µM) greater than 1 µM. The IC50 (second compound 3.16 µM) was 0.293 µM, the IC50 (second compound 10 µM) was less than 0.00316 µM and the viability, T/C [21] was 106%. The viability, T/C [22] was 89.7%, the viability, T/C [1] was 102% and the viability, T/C [2] was 74.6%. It also gave a viability, T/C [3] of 62.6%, a viability, T/C [4] of 37.8% and a viability, T/C [23] of 85.3%. For the same compound, the viability, T/C [24] was 92.6%, the viability, T/C [5] was 76.2% and the viability, T/C [6] was 81.1%. It also gave a viability, T/C [7] of 60.2%, a viability, T/C [8] of 35.8% and a viability, T/C [25] of 66.5%. The viability, T/C [26] was 63%, the viability, T/C [9] was 69.3% and the viability, T/C [10] was 72.9%. For the same compound, the viability, T/C [11] was 53.5%, the viability, T/C [12] was 50.2% and the viability, T/C [27] was 66.7%. The viability, T/C [28] was 74.1%, the viability, T/C [13] was 73.1% and the viability, T/C [14] was 63.8%. The viability, T/C [15] was 49.4%, the viability, T/C [16] was 40.2% and the viability, T/C [29] was 3.13%. The viability, T/C [30] was 3.32%, the viability, T/C [17] was 3.34% and the viability, T/C [18] was 4.58%. The viability, T/C [19] was 3.11% and the viability, T/C [20] was 5.96%.

Compound `CCN(c1cc(-c2ccc(CN3CCOCC3)cc2)cc(C(=O)NCc2c(C)cc(C)[nH]c2=O)c1C)C1CCOCC1` + CC(CO)NC(=O)c1cc(-c2ccc(Cl)cc2)nn(-c2cnn(C)c2)c1=O has an IC50 (second compound 0.1 µM) greater than 3 µM, an IC50 (second compound 0.316 µM) greater than 3 µM and an IC50 (second compound 1 µM) greater than 3 µM. It also gave an IC50 (second compound 3.16 µM) greater than 3 µM, an IC50 (second compound 10 µM) greater than 3 µM and a viability, T/C (second compound 0.1 µM, first compound 0.00949 µM) of 100%. The viability, T/C (second compound 0.1 µM, first compound 0.03 µM) was 86.8%, the viability, T/C (second compound 0.1 µM, first compound 0.0949 µM) was 88.2% and the viability, T/C (second compound 0.1 µM, first compound 0.3 µM) was 82.9%. It also gave a viability, T/C (second compound 0.1 µM, first compound 0.949 µM) of 93.5%, a viability, T/C (second compound 0.1 µM, first compound 3 µM) of 94.3% and a viability, T/C (second compound 0.316 µM, first compound 0.00949 µM) of 103%. It also gave a viability, T/C (second compound 0.316 µM, first compound 0.03 µM) of 98.6%, a viability, T/C (second compound 0.316 µM, first compound 0.0949 µM) of 94.9% and a viability, T/C (second compound 0.316 µM, first compound 0.3 µM) of 85.6%. It also gave a viability, T/C (second compound 0.316 µM, first compound 0.949 µM) of 99.9%, a viability, T/C (second compound 0.316 µM, first compound 3 µM) of 83.8% and a viability, T/C (second compound 1 µM, first compound 0.00949 µM) of 95.6%. For the same compound, the viability, T/C (second compound 1 µM, first compound 0.03 µM) was 96.1%, the viability, T/C (second compound 1 µM, first compound 0.0949 µM) was 91% and the viability, T/C (second compound 1 µM, first compound 0.3 µM) was 95.4%. It also gave a viability, T/C (second compound 1 µM, first compound 0.949 µM) of 88.4%, a viability, T/C (second compound 1 µM, first compound 3 µM) of 90.2% and a viability, T/C (second compound 3.16 µM, first compound 0.00949 µM) of 88%. It also gave a viability, T/C (second compound 3.16 µM, first compound 0.03 µM) of 82%, a viability, T/C (second compound 3.16 µM, first compound 0.0949 µM) of 85.6% and a viability, T/C (second compound 3.16 µM, first compound 0.3 µM) of 91.9%. The viability, T/C (second compound 3.16 µM, first compound 0.949 µM) was 98.7%, the viability, T/C (second compound 3.16 µM, first compound 3 µM) was 86.6% and the viability, T/C (second compound 10 µM, first compound 0.00949 µM) was 80.9%. For the same compound, the viability, T/C (second compound 10 µM, first compound 0.03 µM) was 77.2%, the viability, T/C (second compound 10 µM, first compound 0.0949 µM) was 79.7% and the viability, T/C (second compound 10 µM, first compound 0.3 µM) was 82.5%. The viability, T/C (second compound 10 µM, first compound 0.949 µM) was 73.5% and the viability, T/C (second compound 10 µM, first compound 3 µM) was 83.1%.

`CC[C@@]1(O)C(=O)OCc2c1cc1n(c2=O)Cc2cc3c(CN(C)C)c(O)ccc3nc2-1` + CC(CO)NC(=O)c1cc(-c2ccc(Cl)cc2)nn(-c2cnn(C)c2)c1=O was tested, and the IC50 (second compound 0.1 µM) was greater than 0.1 µM, the IC50 (second compound 0.316 µM) was greater than 0.1 µM and the IC50 (second compound 1 µM) was greater than 0.1 µM. It also gave an IC50 (second compound 3.16 µM) greater than 0.1 µM, an IC50 (second compound 10 µM) greater than 0.1 µM and a viability, T/C (second compound 0.1 µM, first compound 0.000316 µM) of 99.5%. It also gave a viability, T/C (second compound 0.1 µM, first compound 0.001 µM) of 92.5%, a viability, T/C [21] of 95.3% and a viability, T/C [22] of 87.2%. It also gave a viability, T/C [1] of 84.1%, a viability, T/C [2] of 57.7% and a viability, T/C (second compound 0.316 µM, first compound 0.000316 µM) of 87.4%. It also gave a viability, T/C (second compound 0.316 µM, first compound 0.001 µM) of 94.6%, a viability, T/C [23] of 89% and a viability, T/C [24] of 99.5%. For the same compound, the viability, T/C [5] was 89.6%, the viability, T/C [6] was 68.9% and the viability, T/C (second compound 1 µM, first compound 0.000316 µM) was 93%. The viability, T/C (second compound 1 µM, first compound 0.001 µM) was 90%, the viability, T/C [25] was 89.3% and the viability, T/C [26] was 88.8%. It also gave a viability, T/C [9] of 81.9%, a viability, T/C [10] of 65.3% and a viability, T/C (second compound 3.16 µM, first compound 0.000316 µM) of 81.3%. The viability, T/C (second compound 3.16 µM, first compound 0.001 µM) was 82.3%, the viability, T/C [27] was 84.6% and the viability, T/C [28] was 99.6%. For the same compound, the viability, T/C [13] was 88%, the viability, T/C [14] was 75% and the viability, T/C (second compound 10 µM, first compound 0.000316 µM) was 81.5%. The viability, T/C (second compound 10 µM, first compound 0.001 µM) was 80.1%, the viability, T/C [29] was 81.9% and the viability, T/C [30] was 68.6%. For the same compound, the viability, T/C [17] was 54.9% and the viability, T/C [18] was 56.1%.
